# According to publication PMC12040169 (PLOS Biology, 2025):
# Assay: in vitro
# Conditions: human, hela cells, % viability
structure (smiles),measurement,setting,value
Cc1ccc(C(NC(=O)CC(C)C)c2ccc3cccnc3c2O)cc1 (stereo not drawn) [CBK293943],"viability at 28.5 h, 10 µM",,89.3%
CN1CCN(CCC(=O)Nc2cccc(Cl)c2)CC1 [CBK070793C],"viability at 28.5 h, 10 µM",,108%
O=[N+]([O-])c1ccccc1NC1OCC(O)C(O)C1O (stereo not drawn) [CBK262032],"viability at 28.5 h, 10 µM",,90.3%
COC(=O)C1(Cc2cc(-c3cccc(F)c3)no2)CCOCC1 [CBK285330],"viability at 28.5 h, 10 µM",,95.8%
CC(c1ccco1)N(C)Cc1c[nH]nc1-c1ccc(O)cc1 (stereo not drawn) [CBK283303],"viability at 28.5 h, 10 µM",,89%
Nc1nc(NCc2ccccc2)nc(-c2cc(Cl)ccc2O)n1 [CBK074526],"viability at 28.5 h, 10 µM",,102%
CN(CCCc1cnn(C)c1)c1nc(N)nc2c1CCCC2 [CBK306766],"viability at 28.5 h, 10 µM",,96.5%
COc1ccc(C)cc1-n1ccc(C(=O)NC(C)(C)C)n1 [CBK306315],"viability at 28.5 h, 10 µM",,78.8%
O=C(O)CCN1C(=O)C(=Cc2ccc(OCc3ccccc3)cc2)c2ccccc2C1=O [CBK297552],"viability at 28.5 h, 10 µM",,105%
O=C(c1cc(-c2cccc(Br)c2)nc2ccccc12)N1CCN(C/C=C/c2ccccc2)CC1 [CBK262633],"viability at 28.5 h, 10 µM",,100%
COc1ccc(C(=O)N(C)C2CCN(C)C2)cc1Nc1cncc(-c2cc3ccccc3[nH]2)n1 (stereo not drawn) [CBK155260T],"viability at 28.5 h, 10 µM",,108%
CCc1cccc(C)c1NC(=O)CN(c1ccc(Br)c(C)c1)S(C)(=O)=O [CBK267935],"viability at 28.5 h, 10 µM",,102%
CCSc1nc(=O)c2c(n1C)NC(=O)CC2c1ccccc1 (stereo not drawn) [CBK307541],"viability at 28.5 h, 10 µM",,107%
Cc1ncsc1C(=O)N1CCC2(C/C=C/C[C@H]3COCC[C@H]3NC(=O)[C@@H](CC(C)C)NC2=O)CC1 [CBK292187],"viability at 28.5 h, 10 µM",,107%
Cc1ccccc1OCC(O)CN1CCN(CCN2C(=O)c3cccc4cccc(c34)C2=O)CC1 (stereo not drawn) [CBK278321C],"viability at 28.5 h, 10 µM",,68.9%
CC(=O)Nc1ccc(Sc2ccccn2)cc1 [CBK085853],"viability at 28.5 h, 10 µM",,101%
CC1(C)CC(=O)C2=C(C1)Nc1ccccc1N(CC(=O)O)C2c1cccs1 (stereo not drawn) [CBK286597],"viability at 28.5 h, 10 µM",,83.6%
Cc1ccc(C2=NN(c3ccccc3)C(c3cn(CCC(=O)O)nc3-c3ccccc3)C2)cc1 (stereo not drawn) [CBK296110],"viability at 28.5 h, 10 µM",,107%
Cc1ncsc1CCOc1cccc(C(F)(F)F)n1 [CBK115794],"viability at 28.5 h, 10 µM",,117%
CS(=O)(=O)c1ccc(-c2cccc(COC3CCN(C(=O)Cc4c[nH]cn4)CC3)c2)cc1 [CBK149515],"viability at 28.5 h, 10 µM",,90.9%
Cc1ccc2c(c1C)NC(=O)CC2c1ccc(F)cc1 (stereo not drawn) [CBK288221],"viability at 28.5 h, 10 µM",,101%
O=C(CSc1ncnc2c1oc1ccccc12)NC1CCCCC1 [CBK287396],"viability at 28.5 h, 10 µM",,95.4%
CCOC(=O)c1c(-c2ccc(C)o2)csc1NC(=O)CN1C(=O)c2ccccc2C1=O [CBK267699],"viability at 28.5 h, 10 µM",,85.1%
CCOC(=O)N1CCC2(CC1)OCc1ccc(C#N)cc1O2 [CBK131679],"viability at 28.5 h, 10 µM","bulk resorufin, single well",97.2%
CONC(=O)c1nn(Cc2ccc(C)cc2)c2ccccc12 [CBK047848],"viability at 28.5 h, 10 µM","bulk resorufin, single well",79.6%
Cc1cc(S(=O)(=O)NCc2ccccc2)ccc1OCC(=O)N1CCN(C)CC1 [CBK268274],"viability at 28.5 h, 10 µM",,86.4%
COC(=O)c1cc(C#N)c(=O)n(CC(=O)Nc2ccc(OC)c(OC)c2)c1 [CBK297926],"viability at 28.5 h, 10 µM",,102%
COc1ccc(Br)c(C(CO)N(C)C(=O)CC#N)c1 (stereo not drawn) [CBK304240],"viability at 28.5 h, 10 µM",,88%
O=C(CCc1ccccc1)NC(c1cccc([N+](=O)[O-])c1)c1c(O)ccc2ccccc12 (stereo not drawn) [CBK265278],"viability at 28.5 h, 10 µM",,109%
Cc1ccccc1OCCNS(=O)(=O)c1cccc([N+](=O)[O-])c1 [CBK264195],"viability at 28.5 h, 10 µM",,106%
O=C(NC(Cc1ccc(O)cc1)C(=O)O)c1ccccc1 (stereo not drawn) [CBK260937],"viability at 28.5 h, 10 µM",,88.4%
COc1ccc(O[C@@H]2CCCC[C@@H]2N2CCCCC2)cc1 [CBK015661C],"viability at 28.5 h, 10 µM",,90.6%
Cc1c(C(=O)N2CCCC(c3nc(C)n4ccsc34)C2)cnn1C (stereo not drawn) [CBK284593],"viability at 28.5 h, 10 µM",,102%
COc1ccc(Cl)cc1NC(=S)NCCn1cc(Cl)cn1 [CBK267063],"viability at 28.5 h, 10 µM",,89.8%
CCOc1cc(C)ccc1S(=O)(=O)n1nnc2ccccc21 [CBK287796],"viability at 28.5 h, 10 µM",,97.3%
CCCNC(=O)C[C@@H]1CCN(C(=O)c2ccnc(Cl)c2)C[C@@H]1CC [CBK289138],"viability at 28.5 h, 10 µM",,99.3%
COc1ccc(CN2CCCN(C(=O)c3ccc(C#N)cc3)CC2)cc1 [CBK305273],"viability at 28.5 h, 10 µM",,91.4%
COc1ccc(C)cc1S(=O)(=O)N1CCc2c(CN3CCN(C)CC3)cccc21 [CBK113628T],"viability at 28.5 h, 10 µM",,115%
COC(=O)c1ccc(NC(=S)NC(=O)c2cncc(Br)c2)cc1 [CBK099257],"viability at 28.5 h, 10 µM",,87.9%
O=C(CSc1ccc2nnc(-c3ccc(F)cc3)n2n1)N1CCOCC1 [CBK287521],"viability at 28.5 h, 10 µM",,96.9%
CCOC(=O)C1=C(Nc2ccc(O)cc2)C(=O)N(C(C)(C)C)C1 [CBK005677],"viability at 28.5 h, 10 µM",,83%
CSc1nc(C)c(CCC(=O)Nc2ccc(N3CC(C)OC(C)C3)nc2)c(C)n1 (stereo not drawn) [CBK298266],"viability at 28.5 h, 10 µM",,87.4%
O=c1[nH]nc2cc(SCc3ccc(Cl)cc3)ncn12 [CBK300540],"viability at 28.5 h, 10 µM",,107%
Nc1ncc(-c2ccc(C(F)(F)F)cc2)c(C2CCCN(C(=O)c3ccccc3)C2)n1 (stereo not drawn) [CBK285790],"viability at 28.5 h, 10 µM",,89.2%
CSCCC(=O)Nc1ccc2ncccc2c1 [CBK159818],"viability at 28.5 h, 10 µM",,87.2%
c1ccc(CCN2CCC(c3nc(-c4ccccc4)no3)CC2)cc1 [CBK051454],"viability at 28.5 h, 10 µM",,89.8%
Cc1c(C(=O)N2CCNCC2C)nnn1-c1ccc2ncccc2c1 (stereo not drawn) [CBK304473],"viability at 28.5 h, 10 µM",,94.6%
CCN(CC)C(=O)CN1C(=O)C2(Nc3ccccc3C(=O)N2c2ccc(F)cc2)c2ccccc21 (stereo not drawn) [CBK103751],"viability at 28.5 h, 10 µM",,83.3%
Cc1c(NC(=O)C2CN(S(=O)(=O)c3ccccc3)CCN2S(=O)(=O)c2ccccc2)c(=O)n(-c2ccccc2)n1C (stereo not drawn) [CBK264138],"viability at 28.5 h, 10 µM",,98%
COc1ccc(C2NCCc3c2[nH]c2ccccc32)cc1CN1CCN(c2ccc(F)cc2)CC1 (stereo not drawn) [CBK264178C],"viability at 28.5 h, 10 µM",,81.7%
COc1ccc(CN2CC(C(=O)O)CC2=O)cc1 (stereo not drawn) [CBK267242],"viability at 28.5 h, 10 µM",,96.4%
Cc1ccc(S(=O)(=O)NC(CC(=O)O)c2ccccc2)cc1 (stereo not drawn) [CBK261307],"viability at 28.5 h, 10 µM",,105%
Cc1cccnc1C1(O)CCN(C(=O)Cc2ccccc2F)CC1 [CBK283617],"viability at 28.5 h, 10 µM",,97.8%
CC(=O)N1CCN(Cc2c(C(F)(F)F)[nH]c3ncc(C)cc23)CC1 [CBK284768],"viability at 28.5 h, 10 µM",,93.1%
Cc1cc(N2C(=O)c3oc4ccccc4c(=O)c3C2c2ccncc2)no1 (stereo not drawn) [CBK287780],"viability at 28.5 h, 10 µM",,103%
O=C(Cc1c[nH]c2ccccc12)N1CCC2(CCN(C(=O)c3ccc4[nH]c(=O)[nH]c4c3)C2)C1 (stereo not drawn) [CBK131452],"viability at 28.5 h, 10 µM",,90.8%
CS(=O)(=O)CS(=O)(=O)C1=C(N2CCOCC2)C2CCN1CC2 [CBK019499],"viability at 28.5 h, 10 µM",,87.5%
CC1=NN(C(=O)c2c(Cl)c(C)nn2C)C(O)(C(F)(F)F)C1 (stereo not drawn) [CBK058892],"viability at 28.5 h, 10 µM",,117%
O=CNC(Cc1ccc(O)c([N+](=O)[O-])c1)C(=O)O (stereo not drawn) [CBK262421],"viability at 28.5 h, 10 µM",,101%
Cc1ccc(N2CC(C(=O)Nc3ccc(S(=O)(=O)NCC4CCCO4)cc3)CC2=O)cc1 (stereo not drawn) [CBK267532],"viability at 28.5 h, 10 µM",,91.7%
CC(Oc1cccc(C#N)c1)C(=O)N1CCCC1C(=O)NCC(F)(F)F (stereo not drawn) [CBK305435],"viability at 28.5 h, 10 µM",,93.8%
Cc1nn(CC(=O)N2C(C)CCCC2C)c(=O)c2cc3occc3n12 (stereo not drawn) [CBK283555],"viability at 28.5 h, 10 µM",,80.8%
CC1CCCCN1Cc1nc2c(c(=O)n(C)c(=O)n2C)n1CCCc1ccccc1 (stereo not drawn) [CBK269326],"viability at 28.5 h, 10 µM",,97%
COCCn1c(=O)c2c(nc3oc(C(C)(C)C)cn32)n(C)c1=O [CBK307566],"viability at 28.5 h, 10 µM",,96.7%
COC(=O)c1c(C)[nH]c(C(=O)CSc2ncnc3sc(C)c(-c4ccccc4)c23)c1C [CBK266004],"viability at 28.5 h, 10 µM",,99.5%
COCCNc1nc2c(c(N3CCCCCC3)n1)CCNCC2 [CBK306724],"viability at 28.5 h, 10 µM",,104%
O=[N+]([O-])c1cnc(NS(=O)(=O)c2ccc(-c3ccon3)s2)s1 [CBK067543],"viability at 28.5 h, 10 µM",,95.2%
Cc1cc(C)nc(NC(=O)C(C)Oc2ccc(Cl)cc2C)n1 (stereo not drawn) [CBK268111],"viability at 28.5 h, 10 µM",,94.8%
COc1cc(CCN2CCCCC2)c(C(C)n2cncn2)cc1OC (stereo not drawn) [CBK023837G],"viability at 28.5 h, 10 µM",,90.3%
C=C(C)c1cccc(C(C)(C)NC(=O)N2CCC(C(=O)NC(c3ccc(OC)nc3)c3ccccc3C)CC2)c1 (stereo not drawn) [CBK074871],"viability at 28.5 h, 10 µM",,92.2%
COCCN1C(=O)C2(CC(=O)N(C)C2=O)c2ccccc21 (stereo not drawn) [CBK075387],"viability at 28.5 h, 10 µM",,102%
CC(=O)C(C)n1c(=O)c2c(nc3oc(C(C)(C)C)cn32)n(C)c1=O (stereo not drawn) [CBK306027],"viability at 28.5 h, 10 µM",,91.1%
O=C1Cc2c(ccc3ccccc23)C2(CCN(CC3CCCCO3)CC2)N1 (stereo not drawn) [CBK039395],"viability at 28.5 h, 10 µM",,98.8%
Cn1cc(CCCNC(=O)c2cccc(CN3CCCCCC3)c2)cn1 [CBK306906],"viability at 28.5 h, 10 µM",,93.7%
Cn1c(C(=O)Nc2ccc(Cn3cncn3)cc2)cc2cc(F)ccc21 [CBK281584],"viability at 28.5 h, 10 µM",,104%
COc1ccc(C(=O)NCCCc2nc3ccccc3[nH]2)cc1OC [CBK270018],"viability at 28.5 h, 10 µM",,101%
O=C(NCC(O)c1ccc2ccccc2c1)c1cnc(-c2ccccc2)c(-c2ccncc2)c1 (stereo not drawn) [CBK037438],"viability at 28.5 h, 10 µM",,91%
CCCC(=O)Nc1cc(S(=O)(=O)NC)ccc1C [CBK024770],"viability at 28.5 h, 10 µM",,91.8%
